{
  "source": "patent US7378407B2",
  "about": "“Geldanamycin compounds and method of use” (Kosan Biosciences Incorporated, priority 2004, dated 2008)",
  "key": {"human Hsp90α": {"biological_target": "human Hsp90α (Homo sapiens, UniProt P07900)", "assay": "Hsp90α binding, SPA competition with [allyl-3H]-17-AAG", "source_text": "Truncated (Carreras et al. Anal. Biochem. 2003, 317, 40-46) and full-length forms of human Hsp90 were expressed in E. coli with N-terminal polyHis and biotinylation recognition sequence (BRS) tags to facilitate purification and SPA assay, respectively. […] The 3′ end of the gene contained a BamHI site, adding a single proline residue to the C-terminus. The tagged full-length protein was cloned into pET21d as described for the tagged N-domain of Hsp90 (Carreras et al., cited supra), and co-expressed with biotin ligase encoded by pBIRAcm (Avidity, Denver, Colo.) in Escherichia coli BL21DE(3).\nBiotinylated Hsp90α was added to a 1 mg/mL suspension of streptavidin coated YiSi beads (Pharmacia RPNQ0012; 219 pmol streptavidin/mg) in Binding Buffer (10 mM Tris-HCl, 5 mM MgCl2, pH 7.0) to obtain a final concentration of 225 nM. […] Reaction mixtures were incubated for 2˜4 h at room temperature in 96-well assay plates, then signals for each reaction were measured using a Wallac Microbeta scintillation counter. The resulting data was fit to a competitive binding equation (Segal, I. H., Enzyme Kinetics: Behavior and analysis of rapid equilibrium and steady-state enzyme systems; Wiley Interscience: New York, 1975)."}, "SKBr3 cells": {"tested_on": "SKBr3 cells", "assay": "cells", "format": "cell-based, human", "details": "read-out: Cytotoxicity, SKBr3 Cells (IC50 (nM))", "experimental": "The human breast cancer cell line SKBr3 was obtained from the American Type Culture Collection (Manassas, Va.) and maintained in McCoy's 5A modified medium (Invitrogen; Carlsbad, Calif.) supplemented with 10% fetal bovine serum (FBS) (Hyclone; Logan, Utah) and 2 mM glutamine, in humidified air with 5% CO2 at 37° C.\nCells were seeded in duplicate in 96-well black tissue culture microtiter plates at ˜4000 cells per well and allowed to attach overnight. Serial 10-fold dilutions of compounds were added, and the cells were incubated for 72 h. Cell viability was determined using the CellTiter-Glo™ Luminescent Cell Viability Assay (Promega; Madison, Wis.). IC50 is defined as the concentration of drug required for inhibiting cell growth by 50%."}, "[1]": {"details": "biotinylated Hsp90α on streptavidin beads, competition with [allyl-3H]-17-AAG, 2-4 h room temperature, pH 7.0, read-out: Hsp90α Binding (Kd (μM))"}, "[2]": {"details": "SK-BR-3, human breast cancer cell line SKBr3, 72 h incubation, concentration inhibiting cell growth by 50%"}},
  "note": "Where two headings read alike, the source gives them in different places.",
  "data": [
    {"smiles": "CO[C@H]1/C=C\\C=C(/C)C(=O)NC2=CC(=O)C(N[C@@H]3C(O)O[C@@H](CO)[C@H](O)[C@H]3O)=C(C[C@@H](C)C[C@H](OC)[C@H](O)[C@@H](C)/C=C(\\C)[C@@H]1OC(N)=O)C2=O", "note": "(stereo partly shown) [Compound 1, 17-(glucos-2-amino)-17-demethoxygeldanamycin]", "values": [
      {"measurement": "Kd", "setting": "human Hsp90α; [1]", "value": 0.5, "unit": "µM"},
      {"measurement": "IC50", "setting": "SKBr3 cells; [2]", "value": 1200, "unit": "nM"}
    ]},
    {"smiles": "CO[C@H]1/C=C\\C=C(/C)C(=O)NC2=CC(=O)C(NC[C@@H]3OC(O)[C@@H](O)[C@H](O)[C@H]3O)=C(C[C@@H](C)C[C@H](OC)[C@H](O)[C@@H](C)/C=C(\\C)[C@@H]1OC(N)=O)C2=O", "note": "(stereo partly shown) [Compound 2, 17-(glucos-6-amino)-17-demethoxygeldanamycin]", "values": [
      {"measurement": "Kd", "setting": "human Hsp90α; [1]", "value": 0.2, "unit": "µM"},
      {"measurement": "IC50", "setting": "SKBr3 cells; [2]", "value": 5300, "unit": "nM"}
    ]},
    {"smiles": "CO[C@H]1/C=C\\C=C(/C)C(=O)NC2=CC(=O)C(NCC[N+](C)(C)C)=C(C[C@@H](C)C[C@H](OC)[C@H](O)[C@@H](C)/C=C(\\C)[C@@H]1OC(N)=O)C2=O", "note": "[Compound 3, {[2-(17-demethoxygeldanamycin-17-yl)amino]ethyl}trimethylammonium chloride]", "values": [
      {"measurement": "Kd", "setting": "human Hsp90α; [1]", "value": 0.3, "unit": "µM"},
      {"measurement": "IC50", "setting": "SKBr3 cells; [2]", "value": "> 1000", "unit": "nM"}
    ]},
    {"smiles": "CO[C@H]1/C=C\\C=C(/C)C(=O)NC2=CC(=O)C(NCC[N+](C)(C)[O-])=C(C[C@@H](C)C[C@H](OC)[C@H](O)[C@@H](C)/C=C(\\C)[C@@H]1OC(N)=O)C2=O", "note": "[Compound 4, [2-(17-demethoxygeldanamycin-17-ylamino)-ethyl]dimethylamine N-oxide]", "values": [
      {"measurement": "Kd", "setting": "human Hsp90α; [1]", "value": 0.6, "unit": "µM"},
      {"measurement": "IC50", "setting": "SKBr3 cells; [2]", "value": "> 1000", "unit": "nM"}
    ]},
    {"smiles": "CO[C@H]1/C=C\\C=C(/C)C(=O)NC2=CC(=O)C(NCCOCCOCCNC(=O)CCCC[C@@H]3SC[C@@H]4NC(=O)N[C@@H]43)=C(C[C@@H](C)C[C@H](OC)[C@H](O)[C@@H](C)/C=C(\\C)[C@@H]1OC(N)=O)C2=O", "note": "[Compound 5]", "values": [
      {"measurement": "IC50", "setting": "SKBr3 cells; [2]", "value": "> 1000", "unit": "nM"}
    ]},
    {"smiles": "CO[C@H]1/C=C\\C=C(/C)C(=O)NC2=CC(=O)C(NCCOCCOCCOCCNC(=O)CCCC[C@@H]3SC[C@@H]4NC(=O)N[C@@H]43)=C(C[C@@H](C)C[C@H](OC)[C@H](O)[C@@H](C)/C=C(\\C)[C@@H]1OC(N)=O)C2=O", "note": "[Compound 6]", "values": [
      {"measurement": "Kd", "setting": "human Hsp90α; [1]", "value": 1.1, "unit": "µM"},
      {"measurement": "IC50", "setting": "SKBr3 cells; [2]", "value": "> 1000", "unit": "nM"}
    ]},
    {"smiles": "CO[C@H]1/C=C\\C=C(/C)C(=O)NC2=CC(=O)C(NCCC(=O)O)=C(C[C@@H](C)C[C@H](OC)[C@H](O)[C@@H](C)/C=C(\\C)[C@@H]1OC(N)=O)C2=O", "note": "[Compound 7]", "values": [
      {"measurement": "Kd", "setting": "human Hsp90α; [1]", "value": 1.1, "unit": "µM"},
      {"measurement": "IC50", "setting": "SKBr3 cells; [2]", "value": "> 5000", "unit": "nM"}
    ]},
    {"smiles": "CO[C@H]1/C=C\\C=C(/C)C(=O)NC2=CC(=O)C(NCCP(=O)(O)O)=C(C[C@@H](C)C[C@H](OC)[C@H](O)[C@@H](C)/C=C(\\C)[C@@H]1OC(N)=O)C2=O", "note": "[Compound 8]", "values": [
      {"measurement": "Kd", "setting": "human Hsp90α", "value": 0.6, "unit": "µM"},
      {"measurement": "IC50", "setting": "SKBr3 cells; Homo sapiens, SK-BR-3, 72 h", "value": "~3000", "unit": "nM"}
    ]},
    {"smiles": "CO[C@H]1/C=C\\C=C(/C)C(=O)NC2=CC(=O)C(NCCCP(=O)(O)O)=C(C[C@@H](C)C[C@H](OC)[C@H](O)[C@@H](C)/C=C(\\C)[C@@H]1OC(N)=O)C2=O", "note": "[Compound 9]", "values": [
      {"measurement": "Kd", "setting": "human Hsp90α", "value": 0.9, "unit": "µM"},
      {"measurement": "IC50", "setting": "SKBr3 cells; Homo sapiens, SK-BR-3, 72 h", "value": "~1000", "unit": "nM"}
    ]},
    {"smiles": "CO[C@H]1/C=C\\C=C(/C)C(=O)NC2=CC(=O)C(NCCCCP(=O)(O)O)=C(C[C@@H](C)C[C@H](OC)[C@H](O)[C@@H](C)/C=C(\\C)[C@@H]1OC(N)=O)C2=O", "note": "[Compound 10]", "values": [
      {"measurement": "IC50", "setting": "SKBr3 cells; Homo sapiens, SK-BR-3, 72 h", "value": "~2000", "unit": "nM"}
    ]},
    {"smiles": "C=CCNC1=C2C[C@@H](C)C[C@H](OC)[C@H](O)[C@@H](C)/C=C(\\C)[C@H](OC(N)=O)[C@@H](OC)/C=C\\C=C(/C)C(=O)NC(=CC1=O)C2=O", "note": "[Compound 17-AAG, 17-allylamino-17-demethoxy-geldanamycin, reference compound]", "values": [
      {"measurement": "IC50", "setting": "SKBr3 cells; Homo sapiens, SK-BR-3, 72 h", "value": 38, "unit": "nM"}
    ]}
  ]
}
